Legend:
Settings in all cases: 72 h
Caco-2 [1] = experiment: cell viability relative to DMSO; higher = less toxic
Calu-3 [2] = experiment: as above
HepG2 [3] = experiment: as above
U2OS [4] = experiment: as above
Vero E6 [5] = experiment: as above
Caco-2 [6] = experiment: relative viability EC50 (midpoint between 100% and the lowest measured viability); higher = less toxic
Calu-3 [7] = experiment: as above
HepG2 [8] = experiment: as above
U2OS [9] = experiment: as above
Vero E6 [10] = experiment: as above
Caco-2 [11] = experiment: drug sensitivity score (DSS) for viability; higher = more toxic; extreme values may be limits of the assay
Calu-3 [12] = experiment: as above
HepG2 [13] = experiment: as above
U2OS [14] = experiment: as above
Vero E6 [15] = experiment: as above

`CCCCCCCCCCCCCC[C@@H](O)[C@@H](O)[C@@H](N)CO` [phytosphingosine] showed a cell viability (Caco-2 [1]; 1 nM) of 115%, a cell viability (Caco-2 [1]; 10 nM) of 102% and a cell viability (Caco-2 [1]; 100 nM) of 87.3%. It also gave a cell viability (Caco-2 [1]; 1000 nM) of 113%, a cell viability (Caco-2 [1]; 10000 nM) of 99.5% and a cell viability (Calu-3 [2]; 1 nM) of 103%. It also gave a cell viability (Calu-3 [2]; 10 nM) of 101%, a cell viability (Calu-3 [2]; 100 nM) of 98.6% and a cell viability (Calu-3 [2]; 1000 nM) of 82.3%. It also gave a cell viability (Calu-3 [2]; 10000 nM) of 103%, a cell viability (HepG2 [3]; 1 nM) of 91% and a cell viability (HepG2 [3]; 10 nM) of 92.7%. It also gave a cell viability (HepG2 [3]; 100 nM) of 112%, a cell viability (HepG2 [3]; 1000 nM) of 100% and a cell viability (HepG2 [3]; 10000 nM) of 97.9%. The cell viability (U2OS [4]; 1 nM) was 101%, the cell viability (U2OS [4]; 10 nM) was 100% and the cell viability (U2OS [4]; 100 nM) was 98.9%. The cell viability (U2OS [4]; 1000 nM) was 102%, the cell viability (U2OS [4]; 10000 nM) was 98.3% and the cell viability (Vero E6 [5]; 1 nM) was 98.7%. The cell viability (Vero E6 [5]; 10 nM) was 98.2%, the cell viability (Vero E6 [5]; 100 nM) was 95.9% and the cell viability (Vero E6 [5]; 1000 nM) was 111%. For the same compound, the cell viability (Vero E6 [5]; 10000 nM) was 95.2%, the “relative viability EC50” value (Caco-2 [6]) was over 10 µM and the “relative viability EC50” value (Calu-3 [7]) was over 10 µM. The “relative viability EC50” value (HepG2 [8]) was over 10 µM, the “relative viability EC50” value (U2OS [9]) was over 10 µM and the “relative viability EC50” value (Vero E6 [10]) was over 10 µM. The drug sensitivity score (Caco-2 [11]) was 0, the drug sensitivity score (Calu-3 [12]) was 0 and the drug sensitivity score (HepG2 [13]) was 0. The drug sensitivity score (U2OS [14]) was 0 and the drug sensitivity score (Vero E6 [15]) was 0.
`O=C(OCCN1CCOCC1)C1(c2ccccc2)CCCCC1` [PRE-084] showed a cell viability (Caco-2 [1]; 1 nM) of 108%, a cell viability (Caco-2 [1]; 10 nM) of 102% and a cell viability (Caco-2 [1]; 100 nM) of 93.9%. The cell viability (Caco-2 [1]; 1000 nM) was 90.8%, the cell viability (Caco-2 [1]; 10000 nM) was 89.1% and the cell viability (Calu-3 [2]; 1 nM) was 101%. The cell viability (Calu-3 [2]; 10 nM) was 107%, the cell viability (Calu-3 [2]; 100 nM) was 97.2% and the cell viability (Calu-3 [2]; 1000 nM) was 103%. It also gave a cell viability (Calu-3 [2]; 10000 nM) of 93%, a cell viability (HepG2 [3]; 1 nM) of 106% and a cell viability (HepG2 [3]; 10 nM) of 102%. For the same compound, the cell viability (HepG2 [3]; 100 nM) was 95.6%, the cell viability (HepG2 [3]; 1000 nM) was 108% and the cell viability (HepG2 [3]; 10000 nM) was 100%. The cell viability (U2OS [4]; 1 nM) was 99.3%, the cell viability (U2OS [4]; 10 nM) was 100% and the cell viability (U2OS [4]; 100 nM) was 96.5%. For the same compound, the cell viability (U2OS [4]; 1000 nM) was 107%, the cell viability (U2OS [4]; 10000 nM) was 97.4% and the cell viability (Vero E6 [5]; 1 nM) was 100%. For the same compound, the cell viability (Vero E6 [5]; 10 nM) was 99.7%, the cell viability (Vero E6 [5]; 100 nM) was 106% and the cell viability (Vero E6 [5]; 1000 nM) was 102%. The cell viability (Vero E6 [5]; 10000 nM) was 105%, the “relative viability EC50” value (Caco-2 [6]) was over 10 µM and the “relative viability EC50” value (Calu-3 [7]) was over 10 µM. The “relative viability EC50” value (HepG2 [8]) was over 10 µM, the “relative viability EC50” value (U2OS [9]) was over 10 µM and the “relative viability EC50” value (Vero E6 [10]) was over 10 µM. The drug sensitivity score (Caco-2 [11]) was 0.4, the drug sensitivity score (Calu-3 [12]) was 0 and the drug sensitivity score (HepG2 [13]) was 0. For the same compound, the drug sensitivity score (U2OS [14]) was 0 and the drug sensitivity score (Vero E6 [15]) was 0.
In the case of `C[C@H]1C[C@@H]2[C@H]([C@@H](O)C[C@@]3(C)[C@H]2CC[C@]3(O)C(=O)CO)[C@@]2(C)C=CC(=O)C=C12` [methylprednisolone], the cell viability (Caco-2 [1]; 1 nM) is reported as 96%, the cell viability (Caco-2 [1]; 10 nM) is reported as 108% and the cell viability (Caco-2 [1]; 100 nM) is reported as 90.3%. For the same compound, the cell viability (Caco-2 [1]; 1000 nM) was 99.3%, the cell viability (Caco-2 [1]; 10000 nM) was 98.4% and the cell viability (Calu-3 [2]; 1 nM) was 105%. For the same compound, the cell viability (Calu-3 [2]; 10 nM) was 102%, the cell viability (Calu-3 [2]; 100 nM) was 99.3% and the cell viability (Calu-3 [2]; 1000 nM) was 99.6%. The cell viability (Calu-3 [2]; 10000 nM) was 106%, the cell viability (HepG2 [3]; 1 nM) was 109% and the cell viability (HepG2 [3]; 10 nM) was 107%. It also gave a cell viability (HepG2 [3]; 100 nM) of 103%, a cell viability (HepG2 [3]; 1000 nM) of 98.5% and a cell viability (HepG2 [3]; 10000 nM) of 104%. The cell viability (U2OS [4]; 1 nM) was 102%, the cell viability (U2OS [4]; 10 nM) was 97.9% and the cell viability (U2OS [4]; 100 nM) was 91.4%. For the same compound, the cell viability (U2OS [4]; 1000 nM) was 98.9%, the cell viability (U2OS [4]; 10000 nM) was 95.2% and the cell viability (Vero E6 [5]; 1 nM) was 104%. For the same compound, the cell viability (Vero E6 [5]; 10 nM) was 103%, the cell viability (Vero E6 [5]; 100 nM) was 96.6% and the cell viability (Vero E6 [5]; 1000 nM) was 106%. The cell viability (Vero E6 [5]; 10000 nM) was 101%, the “relative viability EC50” value (Caco-2 [6]) was over 10 µM and the “relative viability EC50” value (Calu-3 [7]) was over 10 µM. For the same compound, the “relative viability EC50” value (HepG2 [8]) was over 10 µM, the “relative viability EC50” value (U2OS [9]) was over 10 µM and the “relative viability EC50” value (Vero E6 [10]) was over 10 µM. It also gave a drug sensitivity score (Caco-2 [11]) of 0, a drug sensitivity score (Calu-3 [12]) of 0 and a drug sensitivity score (HepG2 [13]) of 0. It also gave a drug sensitivity score (U2OS [14]) of 0 and a drug sensitivity score (Vero E6 [15]) of 0.

— the supplement of paper PMC13380429
